Columns and labels:
[1] = molecular target: human HSP90 alpha protein (N-terminal, amino acids 2 to 236) (Homo sapiens (Human), UniProt P07900); experiment: Determination of HSP90-binding activity (AlphaScreen competitive assay with biotinylated geldanamycin); details: inhibition of binding of biotinylated geldanamycin to purified HSP90 N-terminal protein, read-out: HSP-binding activity IC50
Procedure: First, a purified HSP90 solution was prepared as follows: a human HSP90 alpha gene (NCBI Reference Sequence accession no. NM-005348) region corresponding to amino acids 2 to 236 of human HSP90 alpha protein (NCBI Reference Sequence accession no. NP-005339; full length: 732 amino acids) was inserted to pET-19b (Novagen; Merck KGaA) to construct a plasmid pET-HS[…] for expression of the HSP90 N-terminal protein having a His-tag at the N-terminus. E. coli (BL21(DE3), Stratagene Corp.) was transformed with pET-HS[…] and then cultured at 37° C. for 4 hours in the presence of 0.5 mM isopropyl-beta-D-thiogalactopyranoside (Sigma-Aldrich Corp.). The collected E. coli was suspended in a lysis buffer (50 mM Tris-HCl (pH 7.5), 200 mM NaCl) and sonicated. The sonicated cell solution was centrifuged (40,000×g, 20 minutes), and the supernatant was used as a crude extract. This crude extract was fractionated using Ni Sepharose High Performance (GE Healthcare Japan Corp.) chromatography and HiLoad 26/60 Superdex 75 pg (GE Healthcare Japan Corp.). Then, a fraction of HSP90 protein concentrates was prepared in a solution containing 50 mM Tris-HCl (pH 7.5) and 20% glycerol as a purified HSP90 solution. The purified HSP90 solution was divided and stored at -80° C. until use. HSP90-binding activity was determined by an AlphaScreen competitive assay system. […] After reaction at room temperature for 2 hours, biotinylated geldanamycin was added thereto at a concentration of 40 nM/well and further reacted for 1 hour. Detection mix (20 mM HEPES-KOH (pH 7.5), 0.5% BSA, 0.04 mg/mL Nickel Chelate Acceptor beads, 0.04 mg/mL Streptavidin-coated Donor beads) (#6760619C, PerkinElmer, Inc.) was added to each well in an amount equal to the amount of the reaction solution and reacted at room temperature for 1 hour in the dark. Then, fluorescence intensity was measured using Multilabel Plate Reader EnVision (PerkinElmer, Inc.). Percent inhibition (%) of the binding of biotinylated geldanamycin by each compound of the present invention was determined according to the formula shown below with the fluorescence signal of no test substance addition group as a control. […] Percent inhibition (%)=(C-T)/C×100, wherein T: Signal of well with test substance addition C: Signal of well without test substance addition.

SK-BR-3 cells = experiment: Determination of cell growth inhibition (crystal violet staining method); assay type: cell-based; details: Homo sapiens; breast cancer cells SK-BR-3, 72 hours culture with test substance
Procedure: Cell growth was assayed by a crystal violet staining method. SK-BR-3 cells (HTB-30) purchased from American Type Culture Collection were inoculated at a concentration of 5,000 cells/well to a 96-well plate (#353075, BD Biosciences). After culture at 37° C. for 24 hours in a 5% CO2 incubator, each test substance was added thereto, and the cells were further cultured for 72 hours. A 25% glutaraldehyde solution (#17025-25, Nacalai Tesque, Inc.) was added thereto at a concentration of 20 μL/well per 200 μL of the medium, and the plate was incubated at room temperature for 20 minutes to fix the cells. The plate was washed with water and dried. Then, a solution containing 0.05% crystal violet (#038-17792, Wako Pure Chemical Industries, Ltd.) and 20% methanol was added thereto at a concentration of 100 μL/well, and the plate was incubated at room temperature for 20 minutes to stain the cells. The plate was washed with water and dried. A mixed solution of 0.05 M NaH2PO4 and ethanol (mixed in equal amounts) was added thereto at a concentration of 100 μL/well. Absorbance was measured at 540 nm using a microplate reader (MTP-450, Corona Electric Co., Ltd.) and used as an index for the number of cells per well. Percent inhibition (%) of cell growth by each compound of the present invention was determined according to the formula shown below with the absorbance of no drug addition group as a control. […] Percent inhibition (%)=(C−T)/C×100, wherein T: Absorbance of well with test substance addition C: Absorbance of well without test substance addition.

Row | SMILES | IC50 [1] [nM] | IC50 (SK-BR-3 cells) [nM]
1 | NC(=O)c1ccc(-c2nccc3c(-c4cnc5cc(C=O)ccc5c4)cccc23)cc1NC1CCC(O)CC1 (stereo not drawn) [Example 45, 4-(5-(7-Formylquinolin-3-yl)isoquinolin-1-yl)-2-(4-hydroxycyclohexylamino)benzamide] | 220 | 30
2 | CCNc1cc(-c2nccc3c(-n4cnc(-c5cnn(C)c5)c4)ccnc23)ccc1C(N)=O [Example 72, 2-Ethylamino-4-(4-(4-(1-methyl-1H-pyrazol-4-yl)-1H-imidazol-1-yl)1,7-naphthyridin-8-yl)benzamide] | 740 | 1740
3 | CCc1cc(-c2ccc(C(N)=O)c(NC(C)(C)C)c2)c2cccc(-n3cnc(-c4cnn(C)c4)c3)c2n1 [Example 103, 2-(Tert-butylamino)-4-(2-ethyl-8-(4-(1-methyl-1H-pyrazol-4-yl)-1H-imidazol-1-yl)quinolin-4-yl)benzamide] | 120 | 10
4 | Cn1cc(-c2cn(-c3cccc4c(-c5ccc(C(N)=O)c(N)c5)nccc34)cn2)cn1 [Example 128, 2-Amino-4-(5-(4-(1-methyl-1H-pyrazol-4-yl)-1H-imidazol-1-yl)isoquinolin-1-yl)benzamide] | 310 | 1060
5 | Cc1cc2c(-n3cnc(-c4cnn(C)c4)c3)cccc2c(-c2ccc(C(N)=O)c(N)c2)n1 [Example 71, 2-Amino-4-(3-methyl-5-(4-(1-methyl-1H-pyrazol-4-yl)-1H-imidazol-1-yl)isoquinolin-1-yl)benzamide] | 170 | 210
6 | Cc1cc(C(N)=O)ccc1-c1cc(C(F)(F)F)nc2c(-n3cnc(-c4cnn(C(F)F)c4)c3)cccc12 [Example 94, 4-(8-(4-(1-Difluoromethyl-1H-pyrazol-4-yl)-1H-imidazol-1-yl)-2-(trifluoromethyl)quinolin-4-yl)-3-methylbenzamide] | 500 | 110
7 | CN(C)CNC(=O)c1ccc(-c2nccc3c(-c4cnc5ccccc5c4)cccc23)cc1NC1CCC(O)CC1 (stereo not drawn) [Example 38, N-((dimethylamino)methyl)-2-(4-hydroxycyclohexylamino)-4-(5-(quinolin-3-yl)isoquinolin-1-yl)benzamide] | 980 | 40
8 | Cn1cc(-c2cn(-c3cccc4c(-c5ccc(C(N)=O)c(NC(C)(C)C)c5)nccc34)cn2)cn1 [Example 96, 2-(Tert-butylamino)-4-(5-(4-(1-methyl-1H-pyrazol-4-yl)-1H-imidazol-1-yl)isoquinolin-1-yl)benzamide] | 140 | 60
9 | NC(=O)c1ccc(-c2nccc3c(-c4cnc5cc[nH]c5c4)cccc23)cc1NC1CCC(O)CC1 (stereo not drawn) [Example 39, 4-(5-(1H-Pyrrolo[3,2-b]pyridin-6-yl)isoquinolin-1-yl)-2-(4-hydroxycyclohexylamino)benzamide] | 130 | 10
10 | CC(C)OCCNc1cc(-c2cc(C(F)(F)F)nc3c(-n4cnc(-c5ccccc5)c4)cccc23)ccc1C(N)=O [Example 109, 2-(Isopropoxyethylamino)-4-(8-(4-phenyl-1H-imidazol-1-yl)-2-(trifluoromethyl)quinolin-4-yl)benzamide] | 4360 | 210
11 | COCCNc1cc(-c2nc(C)cc3c(-n4cnc(-c5cnn(C)c5)c4)cccc23)ccc1C(N)=O [Example 98, 2-(2-Methoxyethylamino)-4-(3-methyl-5-(4-(1-methyl-1H-pyrazol-4-yl)-1H-imidazol-1-yl)isoquinolin-1-yl)benzamide] | 80 | 20
12 | NC(=O)c1ccc(-c2nc(C(F)(F)F)nc3c(-c4cnc5ccccc5c4)cccc23)cc1NC1CCC(O)CC1 (stereo not drawn) [Example 114, 2-(4-Hydroxycyclohexylamino)-4-(8-(quinolin-3-yl)-2-(trifluoromethyl)quinazolin-4-yl)benzamide] | 70 | 10
13 | Cc1cc2c(-c3cnc4ccccc4c3)cccc2c(-c2ccc(C(N)=O)c(NC3CCC(O)CC3)c2)n1 (stereo not drawn) [Example 7, 2-(4-Hydroxycyclohexylamino)-4-(3-methyl-5-(quinolin-3-yl)isoquinolin-1-yl)benzamide] | 150 | 10
14 | Cc1cc(-c2ccc(C(N)=O)cc2C)c2cccc(-n3cnc(-c4cnn(C)c4)c3)c2n1 [Example 102, 3-Methyl-4-(2-methyl-8-(4-(1-methyl-1H-pyrazol-4-yl)-1H-imidazol-1-yl)quinolin-4-yl)benzamide] | 250 | 630
15 | Cc1nc2ncc(-c3cccc4c(-c5ccc(C(N)=O)c(NC6CCC(O)CC6)c5)nccc34)cc2[nH]1 (stereo not drawn) [Example 40, 2-(4-Hydroxycyclohexylamino)-4-(5-(2-methyl-1H-imidazo[4,5-b]pyridin-6-yl)isoquinolin-1-yl)benzamide] | 150 | 540
16 | Cn1cc(-c2cn(-c3cccc4c(-c5ccc(C(N)=O)c(NCC6CCCO6)c5)nccc34)cn2)cn1 (stereo not drawn) [Example 59, 4-(5-(4-(1-Methyl-1H-pyrazol-4-yl)-1H-imidazol-1-yl)isoquinolin-1-yl)-2-((tetrahydrofuran-2-yl)methylamino)benzamide] | 100 | 90
17 | Cc1cc2c(-n3cnc(-c4cnn(C)c4)c3)cccc2c(-c2ccc(C(N)=O)c(NC(C)C)c2)n1 [Example 67, 2-(Isopropylamino)-4-(3-methyl-5-(4-(1-methyl-1H-pyrazol-4-yl)-1H-imidazol-1-yl)isoquinolin-1-yl)benzamide] | 210 | 20
18 | CC(C)(C)Nc1cc(-c2nccc3c(-n4cnc(-c5cccnc5)c4)cccc23)ccc1C(N)=O [Example 127] | 210 | 50
19 | CC(C)c1cc(-c2ccc(C(N)=O)c(NC(C)(C)C)c2)c2cccc(-n3cnc(-c4cnn(C)c4)c3)c2n1 [Example 112, 2-(Tert-butylamino)-4-(2-isopropyl-8-(4-(1-methyl-1H-pyrazol-4-yl)-1H-imidazol-1-yl)quinolin-4-yl)benzamide] | 500 | 20
20 | CCc1cc(-c2ccc(C(N)=O)c(N)c2)c2cccc(-n3cnc(-c4cccnc4)c3)c2n1 [Example 122, 2-Amino-4-(2-ethyl-8-(4-(pyridin-3-yl)-1H-imidazol-1-yl)quinolin-4-yl)benzamide] | 90 | 10
21 | CCc1nc2ncc(-c3cccc4c(-c5ccc(C(N)=O)c(NC6CCC(O)CC6)c5)nccc34)cc2[nH]1 (stereo not drawn) [Example 41, 4-(5-(2-Ethyl-1H-imidazo[4,5-b]pyridin-6-yl)isoquinolin-1-yl)-2-(4-hydroxycyclohexylamino)benzamide] | 390 | 1270
22 | Cn1cc(-c2cn(-c3cccc4c(-c5ccc(C(N)=O)c(Cl)c5)cc(C(F)(F)F)nc34)cn2)cn1 [Example 81, 2-Chloro-4-(8-(4-(1-methyl-1H-pyrazol-4-yl)-1H-imidazol-1-yl)-2-(trifluoromethyl)quinolin-4-yl)benzamide] | 870 | 760
23 | CC(C)Nc1cc(-c2nccc3c(-n4cnc(-c5cnn(C)c5)c4)cccc23)ccc1C(N)=O [Example 61, 2-(Isopropylamino)-4-(5-(4-(1-methyl-1H-pyrazol-4-yl)-1H-imidazol-1-yl)isoquinolin-1-yl)benzamide] | 190 | 70
24 | Cc1cc2c(-n3cnc(-c4cnn(C)c4)c3)cccc2c(-c2ccc(C(N)=O)cc2N)n1 [Example 74, 3-Amino-4-(3-methyl-5-(4-(1-methyl-1H-pyrazol-4-yl)-1H-imidazol-1-yl)isoquinolin-1-yl)benzamide] | 440 | 1120
